The values below come from ChEMBL document CHEMBL1126778, “Adenosine A1 antagonists. 3. Structure-activity relationships on amelioration against scopolamine- or N6-((R)-phenylisopropyl)adenosine-induced cognitive disturbance” (J Med Chem, 1993).

Assay [1] relates to Mus musculus. The experiment in a line: Acquisition time in (R)-PIA) induced avoidance test (performed in mice) for antagonistic activity after peroral administration of 5 mg/kg. As to conditions: route oral. The format is functional.
Assay [2] relates to Mus musculus. In words: Retention time in (R)-PIA) induced avoidance test (performed in mice) for antagonistic activity after peroral administration of 5 mg/kg. Set-up: dose 5 mg/kg. The format is functional, organism-based.
Assay [3] has as its system Rattus norvegicus. In words: Acquisition time in Scopolamine induced avoidance test (performed in rat) for antagonistic activity after peroral administration of 0.08 mg/kg (n=13). The following applies: route oral. It counts as functional.
Assay [4] relates to Mus musculus. In words: Tested for locomotor activity after oral administration of 40 mg/kg for 120 min. The format is functional.
Assay [5] deals with Mus musculus. The experiment in a line: Acquisition time in (R)-PIA) induced avoidance test (performed in mice) for antagonistic activity after peroral administration of 1.25 mg/kg (n=15). The format is functional. The following applies: route oral.
The subject of assay [6] is Rattus norvegicus. In words: Acquisition time in Scopolamine induced avoidance test (performed in rat) for antagonistic activity after peroral administration of 0.02 mg/kg (n=13). It counts as functional. The following applies: route oral.
Assay [7] relates to Rattus norvegicus. The experiment in a line: Acquisition time in Scopolamine induced avoidance test (performed in rat) for antagonistic activity after peroral administration of 0.31 mg/kg (n=13). It counts as functional. The following applies: route oral.
Assay [8] deals with Rattus norvegicus. In words: Retention time in Scopolamine induced avoidance test (performed in rat) for antagonistic activity after peroral administration of 5 mg/kg. It counts as functional, organism-based. Set-up: dose 5 mg/kg.
In assay [9] the test system is Mus musculus. In words: Retention time in (R)-PIA) induced avoidance test (performed in mice) for antagonistic activity after peroral administration of 0.08 mg/kg (n=15) (P<0.01). The format is functional, organism-based. Set-up: dose 0.08 mg/kg.
Assay [10] has as its system Rattus norvegicus. The experiment in a line: Retention time in Scopolamine induced avoidance test (performed in rat) for antagonistic activity after peroral administration of 0.31 mg/kg (n=13) (P<0.005). It counts as functional, organism-based. On the set-up: dose 0.31 mg/kg.
Assay [11] concerns Mus musculus. In words: Tested for locomotor activity after oral administration of 10 mg/kg for 120 min. It counts as functional.
Assay [12] deals with Rattus norvegicus. In words: Retention time in Scopolamine induced avoidance test (performed in rat) for antagonistic activity after peroral administration of 0.02 mg/kg (n=13). The format is functional, organism-based. On the set-up: dose 0.02 mg/kg.
Assay [13] concerns Mus musculus. In words: Tested for locomotor activity after oral administration of 6.25 mg/kg for 120 min. It counts as functional.
For assay [14], the system named is Rattus norvegicus. The experiment in a line: Acquisition time in Scopolamine induced avoidance test (performed in rat) for antagonistic activity after peroral administration of 1.25 mg/kg. The format is functional. The following applies: route oral.
The subject of assay [15] is Mus musculus. The experiment in a line: Acquisition time in (R)-PIA) induced avoidance test (performed in mice) for antagonistic activity after peroral administration of 0.08 mg/kg (n=15). The format is functional. The following applies: route oral.
Assay [16] has as its system Mus musculus. In words: Acquisition time in (R)-PIA) induced avoidance test (performed in mice) for antagonistic activity after peroral administration of 0.31 mg/kg (n=15). It counts as functional. As to conditions: route oral.
The test system of assay [17] is Rattus norvegicus. In words: Acquisition time in Scopolamine induced avoidance test (performed in rat) for antagonistic activity after peroral administration of 5 mg/kg. The format is functional. The following applies: route oral.
Assay [18] relates to Mus musculus. The experiment in a line: Retention time in (R)-PIA) induced avoidance test (performed in mice) for antagonistic activity after peroral administration of 0.31 mg/kg (n=15) (P<0.005). The format is functional, organism-based. On the set-up: dose 0.31 mg/kg.
The subject of assay [19] is Rattus norvegicus. The experiment in a line: Retention time in Scopolamine induced avoidance test (performed in rat) for antagonistic activity after peroral administration of 0.08 mg/kg (n=13) (P<0.01). It counts as functional, organism-based. Set-up: dose 0.08 mg/kg.
In assay [20] the test system is Mus musculus. In words: Retention time in (R)-PIA) induced avoidance test (performed in mice) for antagonistic activity after peroral administration of 1.25 mg/kg (n=15) (P<0.01). It counts as functional, organism-based. Set-up: dose 1.25 mg/kg.
For assay [21], the target named is T1, Adenosine receptor A1 (Cavia porcellus, UniProt P47745).
T1 sequence (P47745 whole entry): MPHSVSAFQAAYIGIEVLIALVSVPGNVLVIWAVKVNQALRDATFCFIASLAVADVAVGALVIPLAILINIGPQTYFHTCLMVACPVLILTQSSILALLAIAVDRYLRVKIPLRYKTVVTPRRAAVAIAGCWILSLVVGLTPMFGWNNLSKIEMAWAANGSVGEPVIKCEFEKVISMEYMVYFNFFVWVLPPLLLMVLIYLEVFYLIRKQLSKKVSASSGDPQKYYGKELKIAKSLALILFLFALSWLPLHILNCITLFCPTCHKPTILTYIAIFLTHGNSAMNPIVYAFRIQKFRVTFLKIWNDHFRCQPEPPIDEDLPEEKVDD
The experiment in a line: Binding affinity against Adenosine A1 receptor from guinea pig forebrain membranes by N6-[3H]- cyclohexyladenosine displacement.

Assay [22] has as its target Adenosine receptor A1, Rattus norvegicus (UniProt P25099). The experiment in a line: Binding affinity against Adenosine A1 receptor from rat forebrain membranes with N6-[3H]- cyclohexyladenosine.

Sequence of Adenosine receptor A1, Rattus norvegicus (P25099 whole entry, looked up): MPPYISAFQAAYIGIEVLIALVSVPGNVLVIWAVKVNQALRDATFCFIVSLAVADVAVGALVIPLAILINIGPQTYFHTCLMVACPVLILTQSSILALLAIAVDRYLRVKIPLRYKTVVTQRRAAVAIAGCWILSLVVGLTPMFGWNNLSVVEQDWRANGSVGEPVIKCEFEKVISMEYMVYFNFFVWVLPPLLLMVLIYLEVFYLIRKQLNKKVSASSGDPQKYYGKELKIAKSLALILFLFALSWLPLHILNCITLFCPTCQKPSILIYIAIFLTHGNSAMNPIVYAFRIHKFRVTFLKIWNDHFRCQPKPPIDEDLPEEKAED

As to `CCCn1c(=O)c2[nH]c(C3CCCC3)nc2n(CCC)c1=O` [1,3-DIPROPYL-8-CYCLOPENTYLXANTHINE [DPCPX]], the Acquisition time in assay [1] is given as 18.4 s; in assay [3], 21.5 s; in assay [5] it was 20.5 s; in assay [6], 19.8 s; in assay [7] it was 24.7 s; in assay [14], 12.4 s. Moreover, the Acquisition time in [15] was 19.4 s; in assay [16], 19.1 s; in assay [17] it was 14.6 s. Further, the Retention time in assay [2] was determined as 433 s; in assay [8], 68.7 s; in [9], 190 s; in assay [10] it was 273 s; in [12], 32 s; in assay [18], 456 s. Besides, the Retention time amounted to 105 s in assay [19] and 272 s in assay [20]. Also, the Locomotor activity in assay [4] worked out at 5257 Counts; in assay [11], 4679 Counts; in assay [13] it was 3826 Counts.
With `CCCn1c(=O)c2[nH]c(C3CCCC3)nc2n(CCc2ccc(N)cc2)c1=O`, the figures for the Ki in assay [21] and in [22] were 5.6 nM and 0.23 nM, respectively.

The term Ki denotes a measure of affinity in units of concentration, obtained from inhibition or displacement. Read a low Ki as a stronger hold on the target.
